Measured values from US11014895B2, “Heterocyclic urea compound, and drug composition and application thereof” (CHINA PHARMACEUTICAL UNIVERSITY, priority 2017, dated 2021).

Columns and labels:
IDO1 enzyme = IDO1 enzyme (Homo sapiens, UniProt P14902); assay: Determination of biochemical activity of IDO1 enzyme (absorbance at 320 nm); conditions: room temperature, 3 hours
Outline: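 Absorbance at 320 nm was measured after a 3-hour room-temperature reaction of enzyme with compound. Phosphate buffer at pH 7-8 was used; inhibition was derived from the absorption ratio and fitted to IC50.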

[1] = target: T1, IDO1 enzyme in the Hela cell (Homo sapiens, UniProt P14902); assay: Cell activity: interferon γ-stimulated Hela cells, absorbance of supernatant at 480 nm; type: cell-based; conditions: interferon γ 100 ng/ml, 72 hours
T1 construct: endogenous in cells; host or cells: HeLa cells stimulated with interferon γ (100 ng/ml)
T1 sequence (P14902 whole entry): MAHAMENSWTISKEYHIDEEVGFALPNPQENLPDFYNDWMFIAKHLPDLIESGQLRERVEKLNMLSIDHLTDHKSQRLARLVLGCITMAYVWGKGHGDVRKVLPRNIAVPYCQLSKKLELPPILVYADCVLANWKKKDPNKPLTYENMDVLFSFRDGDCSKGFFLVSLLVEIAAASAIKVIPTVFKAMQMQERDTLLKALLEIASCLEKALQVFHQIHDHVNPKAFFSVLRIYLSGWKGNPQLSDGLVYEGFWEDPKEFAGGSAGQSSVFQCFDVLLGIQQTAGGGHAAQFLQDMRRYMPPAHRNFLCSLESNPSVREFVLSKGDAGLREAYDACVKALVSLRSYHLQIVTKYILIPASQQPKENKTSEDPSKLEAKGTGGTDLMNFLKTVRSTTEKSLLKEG
Outline: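 Kynurenine-type readout: supernatant from IFN-γ-stimulated (100 ng/ml final) HeLa cells, 72 h with compound, was acid-hydrolysed with trichloroacetic acid (50 °C, 30 min). After centrifugation, 2% dimethylaminobenzaldehyde/acetic acid added and absorbance measured at 480 nm.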

Chain of IDO1 enzyme (P14902 whole entry): as above

SMILES	IC50 (IDO1 enzyme)	IC50 [1]
O=C(Nc1ncncn1)Nc1nonc1/C(=N/O)Nc1ccc(F)c(Br)c1 [Embodiment 44, (Z)-1-(4-(N-(3-bromo-4-fluorophenyl)-N′-hydroxyaminoiminomethyl)-1,2,5-oxadiazole-3-substituted)-3-(1,3,5-triazine-2-substituted)urea]	> 1 µM	> 1 µM
CC1CCC(NC(=O)Nc2nonc2/C(=N/O)Nc2ccc(F)c(Br)c2)CC1 (stereo not drawn) [Embodiment 9, (Z)-1-(4-(N-(3-bromo-4-fluorophenyl)-N′-hydroxyaminoiminomethyl)-1,2,5-oxadiazole-3-substituted)-3-(4-methylcyclohexyl)urea]	> 1 µM	> 1 µM
COc1ccc(NC(=S)Nc2conc2/C(=N/O)Nc2ccc(F)c(Cl)c2)cc1 [Embodiment 130, (Z)-1-(4-(N-(3-chloro-4-fluorophenyl)-N′-hydroxyaminoiminomethyl)-isoxazole-3-substituted)-4-(4-methoxyphenyl)thiourea]	0.1 to 1 µM	0.1 to 1 µM
O/N=C(\Nc1ccc(F)c(Br)c1)c1nonc1NC(=S)Nc1ccccc1 [Embodiment 116, (Z)-1-(4-(N-(4-bromo-3-fluorophenyl)-N′-hydroxyaminoiminomethyl)-1,2,5-oxadiazole-3-substituted)-3-phenylthiourea]	0.1 to 1 µM	0.1 to 1 µM
COc1ccc(NC(=N)Nc2cocc2/C(=N/O)Nc2ccc(F)c(Br)c2)cc1 [Embodiment 160, (Z)-1-(4-(N-(3-bromo-4-fluorophenyl)-N′-hydroxyaminoiminomethyl)-furan-3-substituted)-3-(4-methoxyphenyl)guanidine]	0.1 to 1 µM	0.1 to 1 µM
O/N=C(\Nc1ccc(F)c(Br)c1)c1cocc1NC(=S)NC1CCCCC1 [Embodiment 138, (Z)-1-(4-(N-(3-bromo-4-fluorophenyl)-N′-hydroxyaminoiminomethyl)-furan-3-substituted)-3-cyclohexylthiourea]	0.1 to 1 µM	0.1 to 1 µM
O=C(Nc1ccoc1)Nc1cocc1/C(=N/O)Nc1ccc(F)c(Br)c1 [Embodiment 77]	> 1 µM	> 1 µM

Results, then the molecule that gave them:

IC50 (IDO1 enzyme)	IC50 [1]	SMILES
< 0.001 µM	< 0.001 µM	NS(=O)(=O)N1CCC(NC(=O)Nc2nonc2/C(=N/O)Nc2ccc(F)c(Br)c2)CC1 [Embodiment 15, (Z)-1-(4-(N-(3-bromo-4-fluorophenyl)-N′-hydroxyaminoiminomethyl)-1,2,5-oxadiazole-3-substituted)-3-(1(aminosulfonyl)piperidine-4-substituted)urea]
< 0.001 µM	< 0.001 µM	Nc1ccc(NC(=O)Nc2nonc2/C(=N/O)Nc2ccc(F)c(Cl)c2)cc1 [Embodiment 24, (Z)-1-(4-(N-(3-chloro-4-fluorophenyl)-N′-hydroxyaminoiminomethyl)-1,2,5-oxadiazole-3-substituted)-3-(4-aminophenyl)urea]
0.1 to 1 µM	0.1 to 1 µM	N=C(Nc1cocc1/C(=N/O)Nc1ccc(F)c(Br)c1)NC1CCCCC1 [Embodiment 162, (Z)-1-(4-(N-(3-bromo-4-fluorophenyl)-N′-hydroxyaminoiminomethyl)-furan-3-substituted)-3-cyclohexylguanidine]
0.1 to 1 µM	0.1 to 1 µM	NC1CCC(NC(=S)Nc2nonc2/C(=N/O)Nc2ccc(F)c(Br)c2)CC1 (stereo not drawn) [Embodiment 126, (Z)-1-(4-(N-(3-bromo-4-fluorophenyl)-N′-hydroxyaminoiminomethyl)-1,2,5-oxadiazole-3-substituted)-3-(4-aminocyclohexyl)thiourea]
< 0.001 µM	< 0.001 µM	OCCCNC(=S)Nc1nonc1/C(=N/O)Nc1ccc(F)c(Br)c1 [Embodiment 127, (Z)-1-(4-(N-(3-bromo-4-fluorophenyl)-N′-hydroxyaminoiminomethyl)-1,2,5-oxadiazole-3-substituted)-3-(3-hydroxypropyl)thiourea]
< 0.001 µM	< 0.001 µM	NC1CCC(NC(=O)Nc2nonc2/C(=N/O)Nc2ccc(F)c(Cl)c2)CC1 (stereo not drawn) [Embodiment 26]
< 0.001 µM	< 0.001 µM	CS(=O)(=O)NCCNC(=O)Nc1nonc1/C(=N/O)Nc1ccc(F)c(Cl)c1 [Embodiment 29, (Z)-1-(4-(N-(3-chloro-4-fluorophenyl)-N′-hydroxyaminoiminomethyl)-1,2,5-oxadiazole-3-substituted)-3-(3-methamido-ethyl)urea]
< 0.001 µM	< 0.001 µM	O=C(NCCO)Nc1conc1/C(=N/O)Nc1ccc(F)c(Br)c1 [Embodiment 110]
